Results on 7 molecules are retold here after US20240391965A1, “STAPLED ANTIMICROBIAL PEPTIDES (STAMPS) AND USES THEREOF” (Lytica Therapeutics, Inc., priority 2021, published 2024).

Data set [1] in a line: 90 minute cytotoxicity assay (LDH release), renal toxicity. In kind it is cell-based. Particulars: 90 minutes of incubation, LDH release; read-out: Inhibitory Concentration at 50% Cytotoxicity (IC50) Human Renal Proximal Tubule Epithelial Cells (RPTEC). Put shortly: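 Released lactate dehydrogenase, read as absorbance at 490 nm after 10 min with assay reagent, serves as read-out. Renal proximal tubule epithelial cells received peptide serial dilutions or vehicle for 90 min at 37° C after overnight plating.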

The nature of data set [2]: 48 hours cytotoxicity assay (CellTiter-Glo), liver toxicity. It is filed as cell-based, human. Particulars: 48 hours of incubation, CellTiter-Glo; read-out: Inhibitory Concentration at 50% Cytotoxicity (IC50) Human Liver Cells (HepG2). Put shortly:
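Viability from CellTiter-Glo luminescence after StAMP dilution series or vehicle acted on HepG2 cells for 48 h at 37 °C. Cells were grown in EMEM plus 10% FBS and given 4 h to attach before dosing.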

The subject of data set [3] is Escherichia coli (E. coli). It is filed as cell-based. Particulars: microbroth dilution, 20-24 hours at 37° C. In short, it runs like this: (§1)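 Bacteria from overnight cultures, regrown 3-4 h, were added at 5×10^5 CFU/ml final to peptide serial dilutions in MHB or MHB II. Plates were incubated 20-24 h at 37° C. The minimum peptide concentration without visible growth was taken as MIC, per a CLSI-adapted microdilution protocol.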
In general terms: Dilution methods test growth across graded concentrations, often in twofold steps.

The subject of data set [4] is Acinetobacter baumannii (A. baumannii). It is filed as cell-based. Particulars: microbroth dilution, 20-24 hours at 37° C. Put shortly: as §1
Data set [5] has as its system Staphylococcus aureus (S. aureus). In kind it is cell-based. Particulars: microbroth dilution, 20-24 hours at 37° C. In short, it runs like this:
as §1

In data set [6] the test system is Klebsiella pneumoniae (K. pneumoniae). In kind it is cell-based. Particulars: microbroth dilution, 20-24 hours at 37° C. Put shortly: as §1
In data set [7] the test system is Pseudomonas aeruginosa (P. aeruginosa). In kind it is cell-based. The note with it: microbroth dilution, 20-24 hours at 37° C. In short, it runs like this:
as §1

In brackets after ≈: the same amount, converted by molar mass. Starred links: 1 amine or outer side, 2 acyl side, 3 side chain; linkers in the order of their positions; H or OH if unused. Positions of bridges follow the written chain, without caps; N, C: chain ends. Residues, ends and D or L forms follow the SMILES beside them. 2,2'Bipyridine(5,5'-diCH2) = c1cc(-c2ccc(C[*:2])cn2)ncc1C[*:1]; mXylylene = c1cc(C[*:1])cc(C[*:2])c1; pXylylene = c1cc(C[*:2])ccc1C[*:1]; X1 = C(=CC[*:2])C[*:1]

Take `CC[C@H](C)[C@H](NC(=O)CN)C(=O)N[C@@H](Cc1ccccc1)C(=O)N[C@@H](CO)C(=O)N[C@@H](CCCCN)C(=O)N[C@@H](CC(C)C)C(=O)N[C@@H](C)C(=O)N[C@H]1CSCC=CCSC[C@@H](C(=O)N[C@@H](CC(N)=O)C(=O)N[C@@H](CC(C)C)C(=O)N[C@@H](CC(C)C)C(=O)N[C@H](C(=O)N[C@@H](CO)C(=O)NCC(=O)N[C@@H](CC(C)C)C(=O)N[C@@H](CCCCN)C(=O)NCC(N)=O)[C@@H](C)CC)NC(=O)[C@H]([C@@H](C)CC)NC(=O)[C@H](CCCCN)NC(=O)[C@H](CCCCN)NC1=O` [compound 12] (H-GIFSKLACKKICNLLISGLKG-NH2; linker 8-12 via X1): the figures for the IC50 in data set [1] and in data set [2] were 70 µg/mL (≈ 31 µM) and 50 µg/mL (≈ 22.1 µM), respectively. Further, the “Minimum Inhibitory Concentration (MIC) E. coli” value in data set [3] stood at 4 µg/mL. In data set [4], the “Minimum Inhibitory Concentration (MIC) A. baumannii” value stood at 4 µg/mL. The “Minimum Inhibitory Concentration (MIC) S. aureus” value in data set [5] is greater than 64 µg/mL. Further, the “Minimum Inhibitory Concentration (MIC) K. pneumoniae” value in data set [6] was 16 µg/mL. For the same molecule, in data set [7], the “Minimum Inhibitory Concentration (MIC) P. aeruginosa” value was 16 µg/mL.

As to `CC[C@H](C)[C@H](NC(=O)CN)C(=O)N[C@H]1CSCc2ccc(nc2)-c2ccc(cn2)CSC[C@@H](C(=O)N[C@H](C(=O)N[C@@H](CCCCN)C(=O)N[C@@H](CC(N)=O)C(=O)N[C@@H](CC(C)C)C(=O)N[C@@H](CC(C)C)C(=O)N[C@H](C(=O)N[C@@H](CO)C(=O)NCC(=O)N[C@@H](CC(C)C)C(=O)N[C@@H](CCCCN)C(=O)NCC(N)=O)[C@@H](C)CC)[C@@H](C)CC)NC(=O)[C@H](CCCCN)NC(=O)CNC(=O)[C@H](C)NC(=O)[C@H](CC(C)C)NC(=O)[C@H](CCCCN)NC(=O)[C@H](CO)NC1=O` [compound 54] (H-GICSKLAGKCIKNLLISGLKG-NH2; linker 3-10 via 2,2'Bipyridine(5,5'-diCH2); N-terminus assumed), the IC50 was determined as 81 µg/mL (≈ 35.3 µM) in data set [1] and 43 µg/mL (≈ 18.7 µM) in data set [2]. In addition, the “Minimum Inhibitory Concentration (MIC) E. coli” value in data set [3] came to 8 µg/mL. Further, the “Minimum Inhibitory Concentration (MIC) A. baumannii” value in data set [4] came out at 8 µg/mL. For the same molecule, in data set [5], the “Minimum Inhibitory Concentration (MIC) S. aureus” value was determined as 64 µg/mL. Besides, the “Minimum Inhibitory Concentration (MIC) K. pneumoniae” value in data set [6] is 16 µg/mL. Further, the “Minimum Inhibitory Concentration (MIC) P. aeruginosa” value in data set [7] was determined as 64 µg/mL.

For the molecule `CC[C@H](C)[C@H](NC(=O)CN)C(=O)N[C@@H](Cc1ccccc1)C(=O)N[C@@H](CO)C(=O)N[C@@H](CCCCN)C(=O)N[C@@H](CC(C)C)C(=O)N[C@@H](C)C(=O)N[C@H]1CSCc2ccc(cc2)CSC[C@@H](C(=O)N[C@@H](CC(N)=O)C(=O)N[C@@H](CC(C)C)C(=O)N[C@@H](CC(C)C)C(=O)N[C@H](C(=O)N[C@@H](CO)C(=O)NCC(=O)N[C@@H](CC(C)C)C(=O)N[C@@H](CCCCN)C(=O)NCC(N)=O)[C@@H](C)CC)NC(=O)[C@H]([C@@H](C)CC)NC(=O)[C@H](CCCCN)NC(=O)[C@H](CCCCN)NC1=O` [compound 11] (H-GIFSKLACKKICNLLISGLKG-NH2; linker 8-12 via pXylylene), the IC50 stood at 16 µg/mL (≈ 6.93 µM) in data set [1] and 23 µg/mL (≈ 9.97 µM) in data set [2]. The “Minimum Inhibitory Concentration (MIC) E. coli” value in data set [3] is 4 µg/mL. The “Minimum Inhibitory Concentration (MIC) A. baumannii” value in data set [4] is 4 µg/mL. For the same molecule, the “Minimum Inhibitory Concentration (MIC) S. aureus” value in data set [5] amounted to 32 µg/mL. The “Minimum Inhibitory Concentration (MIC) K. pneumoniae” value in data set [6] was determined as 8 µg/mL. Also, in data set [7], the “Minimum Inhibitory Concentration (MIC) P. aeruginosa” value amounted to 8 µg/mL.

As to `CC[C@H](C)[C@H](NC(=O)CN)C(=O)N[C@@H](Cc1ccccc1)C(=O)N[C@@H](CO)C(=O)N[C@@H](CCCCN)C(=O)N[C@@H](CC(C)C)C(=O)N[C@@H](C)C(=O)N[C@H]1CSCc2cccc(c2)CSC[C@@H](C(=O)N[C@@H](CC(N)=O)C(=O)N[C@@H](CC(C)C)C(=O)N[C@@H](CC(C)C)C(=O)N[C@H](C(=O)N[C@@H](CO)C(=O)NCC(=O)N[C@@H](CC(C)C)C(=O)N[C@@H](CCCCN)C(=O)NCC(N)=O)[C@@H](C)CC)NC(=O)[C@H]([C@@H](C)CC)NC(=O)[C@H](CCCCN)NC(=O)[C@H](CCCCN)NC1=O` [compound 10] (H-GIFSKLACKKICNLLISGLKG-NH2; linker 8-12 via mXylylene), the values for the IC50 in data set [1] and in data set [2] were 17 µg/mL (≈ 7.37 µM) and 18 µg/mL (≈ 7.8 µM), respectively. Further, the “Minimum Inhibitory Concentration (MIC) E. coli” value in data set [3] worked out at 4 µg/mL. The “Minimum Inhibitory Concentration (MIC) A. baumannii” value in data set [4] is 4 µg/mL. In addition, in data set [5], the “Minimum Inhibitory Concentration (MIC) S. aureus” value was 32 µg/mL. For the same molecule, the “Minimum Inhibitory Concentration (MIC) K. pneumoniae” value in data set [6] is 8 µg/mL. The “Minimum Inhibitory Concentration (MIC) P. aeruginosa” value in data set [7] worked out at 16 µg/mL.

`CC[C@H](C)[C@H](NC(=O)CN)C(=O)N[C@@H](Cc1ccccc1)C(=O)N[C@@H](CO)C(=O)N[C@@H](CCCCN)C(=O)N[C@@H](CC(C)C)C(=O)N[C@@H](C)C(=O)NCC(=O)N[C@@H](CCCCN)C(=O)N[C@@H](CCCCN)C(=O)N[C@H](C(=O)N[C@@H](CCCCN)C(=O)N[C@@H](CC(N)=O)C(=O)N[C@@H](CC(C)C)C(=O)N[C@@H](CC(C)C)C(=O)N[C@H]1CSCc2cccc(c2)CSC[C@@H](C(=O)NCC(N)=O)NC(=O)[C@H](CC(C)C)NC(=O)CNC(=O)[C@H](CO)NC1=O)[C@@H](C)CC` [compound 32] (H-GIFSKLAGKKIKNLLCSGLCG-NH2; linker 16-20 via mXylylene): the IC50 in data set [1] was found to be 30 µg/mL (≈ 13.3 µM); in data set [2], 41 µg/mL (≈ 18.2 µM). For the same molecule, the “Minimum Inhibitory Concentration (MIC) E. coli” value in data set [3] is 2 µg/mL. Also, the “Minimum Inhibitory Concentration (MIC) A. baumannii” value in data set [4] was 2 µg/mL. The “Minimum Inhibitory Concentration (MIC) S. aureus” value in data set [5] was greater than 64 µg/mL. Moreover, in data set [6], the “Minimum Inhibitory Concentration (MIC) K. pneumoniae” value stood at 8 µg/mL. Besides, in data set [7], the “Minimum Inhibitory Concentration (MIC) P. aeruginosa” value came to 16 µg/mL.

Take `CC[C@H](C)[C@H](NC(=O)CN)C(=O)N[C@@H](Cc1ccccc1)C(=O)N[C@@H](CO)C(=O)N[C@@H](CCCCN)C(=O)N[C@@H](CC(C)C)C(=O)N[C@@H](C)C(=O)NCC(=O)N[C@@H](CCCCN)C(=O)N[C@@H](CCCCN)C(=O)N[C@H](C(=O)N[C@H]1CSCc2ccc(cc2)CSC[C@@H](C(=O)N[C@@H](CO)C(=O)NCC(=O)N[C@@H](CC(C)C)C(=O)N[C@@H](CCCCN)C(=O)NCC(N)=O)NC(=O)[C@H](CC(C)C)NC(=O)[C@H](CC(C)C)NC(=O)[C@H](CC(N)=O)NC1=O)[C@@H](C)CC` [compound 21] (H-GIFSKLAGKKICNLLCSGLKG-NH2; linker 12-16 via pXylylene): the IC50 in data set [1] is 96 µg/mL (≈ 42.6 µM); in data set [2], 200 µg/mL (≈ 88.8 µM). Besides, the “Minimum Inhibitory Concentration (MIC) E. coli” value in data set [3] was determined as 8 µg/mL. Further, the “Minimum Inhibitory Concentration (MIC) A. baumannii” value in data set [4] worked out at 16 µg/mL. For the same molecule, in data set [5], the “Minimum Inhibitory Concentration (MIC) S. aureus” value was greater than 64 µg/mL. Also, in data set [6], the “Minimum Inhibitory Concentration (MIC) K. pneumoniae” value worked out at 32 µg/mL. For the same molecule, the “Minimum Inhibitory Concentration (MIC) P. aeruginosa” value in data set [7] was 32 µg/mL.

Consider `CC[C@H](C)[C@H](NC(=O)CN)C(=O)N[C@@H](Cc1ccccc1)C(=O)N[C@@H](CO)C(=O)N[C@@H](CCCCN)C(=O)N[C@@H](CC(C)C)C(=O)N[C@@H](C)C(=O)NCC(=O)N[C@@H](CCCCN)C(=O)N[C@@H](CCCCN)C(=O)N[C@H](C(=O)N[C@H]1CSCc2cccc(c2)CSC[C@@H](C(=O)N[C@@H](CO)C(=O)NCC(=O)N[C@@H](CC(C)C)C(=O)N[C@@H](CCCCN)C(=O)NCC(N)=O)NC(=O)[C@H](CC(C)C)NC(=O)[C@H](CC(C)C)NC(=O)[C@H](CC(N)=O)NC1=O)[C@@H](C)CC` [compound 20] (H-GIFSKLAGKKICNLLCSGLKG-NH2; linker 12-16 via mXylylene), for which the IC50 in data set [1] stood at 25 µg/mL (≈ 11.1 µM); in data set [2], 40 µg/mL (≈ 17.8 µM). Also, the “Minimum Inhibitory Concentration (MIC) E. coli” value in data set [3] amounted to 8 µg/mL. In data set [4], the “Minimum Inhibitory Concentration (MIC) A. baumannii” value worked out at 8 µg/mL. The “Minimum Inhibitory Concentration (MIC) S. aureus” value in data set [5] was 64 µg/mL. The “Minimum Inhibitory Concentration (MIC) K. pneumoniae” value in data set [6] was found to be 16 µg/mL. The “Minimum Inhibitory Concentration (MIC) P. aeruginosa” value in data set [7] is 16 µg/mL.
